Measurements as given in paper PMC10799085, “A miniaturized mode-of-action profiling platform enables high throughput characterization of the molecular and cellular dynamics of EZH2 inhibition” (Scientific Reports, 2024).
pKd, pKi: −log10 of the molar value. Where two headings read alike, the source gives them in different places.

Experiments:
[1] = biological target: T1, PRC2/EZH2+/+ (Homo sapiens, UniProt Q15910); assay: Equilibrium probe competition assay (ePCA), TR-FRET; format: binding
T1 construct: purchased Active Motif

[2] = biological target: T2, PRC2/EZH2Y641N (Homo sapiens, UniProt Q15910, Y641N); assay: as above; format: binding
T2 construct: Synthetic cDNA encoding N-terminal 6His-tagged full length EZH2^Y641N; 6His (N); made in house; host or cells: Sf9 insect cells (baculovirus co-infection)

[3] = biological target: T2, PRC2/EZH2Y641N; assay: Kinetic probe competition assay (kPCA), TR-FRET; format: binding
Source text: Biotinylated PRC2 complexes and the fluorescent probe used in TR-FRET assays were generated as described in the supplementary methods section.

[4] = biological target: T3, PRC2/EZH2 Y111L (Homo sapiens, UniProt Q15910, Y111L); assay: Scintillation proximity assay (SPA) of H3K27 methylation; format: biochemical
T3 construct: N-terminal 6His-tagged full length EZH2^Y641N, EZH2^Y111L; 6His (N); made in house; host or cells: Sf9 insect cells (baculovirus co-infection)
Method: (§1) Assay-ready plates containing 50 nl of compound dilutions and DMSO controls were filled with 2.5 µL enzyme solution and pre-incubated for 15 min. […] Experiments were also performed without pre-incubation of enzyme and compounds. In this case, the substrate solution was added before enzyme. The reaction was stopped using 1.6 µg/µl streptavidin beads (Perkin Elmer) and 700 µM of SAM (Perkin Elmer). The plates were sealed with transparent foil.
(§2) For equilibrium binding competition (ePCA) and SPA enzyme inhibition assays, raw data import, quality control, normalization, and curve fitting to a 4-parameter logistic equation for IC50 determination were performed using the Genedata Screener® software (Genedata AG). ePCA Ki values were either calculated using the Cheng-Prussof equation[68] or with the GraphPad Prism model “One-site—Fit Ki”.

[5] = biological target: T1, PRC2/EZH2+/+; assay: as above; format: biochemical
Method: as §1, §2

[6] = biological target: T4, PRC2/EZH2Y111D (Homo sapiens, UniProt Q15910, Y111D); assay: as above; format: biochemical
T4 construct: N-terminal 6His-tagged full length EZH2^Y641N, EZH2^Y111L, EZH2^Y111D; 6His (N); made in house; host or cells: Sf9 insect cells (baculovirus co-infection)
Method: as §1, §2

[7] = biological target: T2, PRC2/EZH2Y641N; assay: as above; format: biochemical
Method: as §1, §2

[8] = biological target: T5, PRC2/EZH2Y641N+Y661D (Homo sapiens, UniProt Q15910, Y641N/Y661D); assay: as above; format: biochemical
T5 construct: N-terminal 6His-tagged full length EZH2^Y641N, EZH2^Y111L, EZH2^Y111D, EZH2^Y641N, Y661DEZH2, EZH1; 6His (N); made in house; host or cells: Sf9 insect cells (baculovirus co-infection)
Method: as §1, §2

[9] = system: KARPAS-422 cells; assay: Cellular proliferation assay (AlamarBlue, 144 h); format: cell-based; conditions: Homo sapiens, KARPAS-422, 144 h, read-out: KARPAS (6-day) Anti-proliferation IC50 (M)
Method: Cell viability was determined by means of the AlamarBlue® reagent (Thermo Fisher Scientific) following instructions from the manufacturer. […] Anti-proliferative IC50s were calculated by fitting the normalized AlamarBlue® fluorescence values to a 4-parameter logistic equation using the Electronic Notebook (ELN) software from IDBS.

[10] = in vitro; format: in vitro ADME; conditions: human, Caco-2, pH 7.2
Method: Cells were kept at 37 °C in a humidified 5% CO2 atmosphere. Before the permeation assay was run, the culture medium was replaced by an FCS-free HEPES carbonate transport buffer (pH 7.2). For assessment of monolayer integrity, the transepithelial electrical resistance was measured. Test compounds were pre-dissolved in DMSO and added either to the apical or basolateral compartment at a final concentration of 2 µM. Before and after 2 h incubation at 37 °C, samples were taken from both compartments. Analysis of compound content was conducted after precipitation with methanol by LC/MS/MS analysis. Reference compounds were analyzed in parallel as assay control. Permeability (Papp) was calculated in the apical to basolateral (A → B) and basolateral to apical (B → A) directions. The efflux ratio basolateral (B) to apical (A) was calculated by dividing Papp B–A by Papp A–B.

[11] = EZH2Y641N (- H3K27me3), sheet ePCA&kPCA RT
[12] = EZH2Y641N (+ H3K27me3), RT sheet

Compound: Cc1cc(C)c(CN2CCc3c(Cl)cc(-c4c(C)noc4C)c(Cl)c3C2=O)c(=O)[nH]1 [Compound 14]
- Ligand Efficiency ([1]; EZH2+/+ (+ H3K27me3)): 1.6
- pKi ([1]; EZH2+/+ (+ H3K27me3), sheet ePCA&kPCA RT, read-out: Equilibrium Ki): 9.04
- Ligand Efficiency ([1]; EZH2+/+ (- H3K27me3)): 1.5
- pKi ([1]; EZH2+/+ (- H3K27me3), 5 °C, read-out: Ki (Equilibrium)): 8.96
- pKi ([1]; EZH2+/+ (- H3K27me3), 15 °C, read-out: Ki (Equilibrium)): 9.09
- pKi ([1]; EZH2+/+ (- H3K27me3), 30 °C, read-out: Ki (Equilibrium)): 8.71
- pKi ([1]; EZH2+/+ (- H3K27me3), 37 °C, read-out: Ki (Equilibrium)): 8.64
- pKi ([1]; EZH2+/+ (- H3K27me3), sheet ePCA&kPCA RT, read-out: Equilibrium Ki): 8.83
- Ligand Efficiency ([2]; EZH2Y641N (+ H3K27me3)): 1.6
- pKi ([2]; EZH2Y641N (+ H3K27me3), equilibrium, RT sheet): 8.87
- Ligand Efficiency ([2]; EZH2Y641N (- H3K27me3)): 1.5
- pKi [2, 11]: 8.52
- Kinetic Efficiency ([3]; EZH2Y641N (+ H3K27me3)): 2.02E-02
- koff [3, 12]: 0.000921 s⁻¹
- kon [3, 12]: 1.28e+06 M⁻¹ s⁻¹
- Calculated RT ([3]; EZH2Y641N (+ H3K27me3)): 0.16 h
- pKd ([3]; EZH2Y641N (+ H3K27me3), kinetic, RT sheet): 9.17
- Kinetic Efficiency ([3]; EZH2Y641N (- H3K27me3)): 2.35E-02
- Calculated RT ([3]; EZH2Y641N (- H3K27me3)): 0.19 h
- pKd [3, 11]: 8.55
- koff [3, 11]: 0.00136 s⁻¹
- kon [3, 11]: 496000 M⁻¹ s⁻¹
- Ligand Efficiency - 0' enzyme:inhibitor pre-incubation EZH2 Y111L [4]: 1.0
- Ligand Efficiency - 15' enzyme:inhibitor pre-incubation EZH2 Y111L [4]: 1.1
- Ligand Efficiency - 60' enzyme:inhibitor pre-incubation EZH2 Y111L [4]: 1.0
- IC50 ([4]; 0' enzyme:inhibitor pre-incubation, read-out: SPA Mean IC50 (M) - 0' enzyme:inhibitor pre-incubation EZH2 Y111L): 1.1e-06 M
- IC50 ([4]; 15' enzyme:inhibitor pre-incubation, read-out: SPA Mean IC50 (M) - 15' enzyme:inhibitor pre-incubation EZH2 Y111L): 9.6e-07 M
- IC50 ([4]; 60' enzyme:inhibitor pre-incubation, read-out: SPA Mean IC50 (M) - 60' enzyme:inhibitor pre-incubation EZH2 Y111L): 1.1e-06 M
- Ligand Efficiency - 0' enzyme:inhibitor pre-incubation EZH2+/+ [5]: 1.5
- Ligand Efficiency - 15' enzyme:inhibitor pre-incubation EZH2+/+ [5]: 1.5
- Ligand Efficiency - 60' enzyme:inhibitor pre-incubation EZH2+/+ [5]: 1.5
- IC50 ([5]; 0' enzyme:inhibitor pre-incubation, read-out: SPA Mean IC50 (M) - 0' enzyme:inhibitor pre-incubation EZH2+/+): 4.1e-09 M
- IC50 ([5]; 15' enzyme:inhibitor pre-incubation, read-out: SPA Mean IC50 (M) - 15' enzyme:inhibitor pre-incubation EZH2+/+): 1.9e-09 M
- IC50 ([5]; 60' enzyme:inhibitor pre-incubation, read-out: SPA Mean IC50 (M) - 60' enzyme:inhibitor pre-incubation EZH2+/+): 1.8e-09 M
- Ligand Efficiency - 0' enzyme:inhibitor pre-incubation EZH2Y111D [6]: 0.9
- Ligand Efficiency - 15' enzyme:inhibitor pre-incubation EZH2Y111D [6]: 0.9
- Ligand Efficiency - 60' enzyme:inhibitor pre-incubation EZH2Y111D [6]: 0.857
- IC50 ([6]; 0' enzyme:inhibitor pre-incubation, read-out: SPA Mean IC50 (M) - 0' enzyme:inhibitor pre-incubation EZH2Y111D): 1.3e-05 M
- IC50 ([6]; 15' enzyme:inhibitor pre-incubation, read-out: SPA Mean IC50 (M) - 15' enzyme:inhibitor pre-incubation EZH2Y111D): 8.5e-06 M
- IC50 ([6]; 60' enzyme:inhibitor pre-incubation, read-out: SPA Mean IC50 (M) - 60' enzyme:inhibitor pre-incubation EZH2Y111D): 1.3e-05 M
- IC50 ([7]; 0' enzyme:inhibitor pre-incubation, read-out: SPA Mean IC50 (M) - 0' enzyme:inhibitor pre-incubation hEZH2Y641N): 1.5e-08 M
- IC50 ([7]; 15' enzyme:inhibitor pre-incubation, read-out: SPA Mean IC50 (M) - 15' enzyme:inhibitor pre-incubation EZH2Y641N): 1.1e-08 M
- IC50 ([7]; 60' enzyme:inhibitor pre-incubation, read-out: SPA Mean IC50 (M) - 60' enzyme:inhibitor pre-incubation EZH2Y641N): 1.2e-08 M
- Ligand Efficiency - 0' enzyme:inhibitor pre-incubation hEZH2Y641N ([7]; from SPA pIC50 (1.4*pIC50 / atom count), 0' pre-incubation): 1.4
- Ligand Efficiency - 15' enzyme:inhibitor pre-incubation EZH2Y641N ([7]; from SPA pIC50 (1.4*pIC50 / atom count), 15' pre-incubation): 1.4
- Ligand Efficiency - 60' enzyme:inhibitor pre-incubation EZH2Y641N ([7]; from SPA pIC50 (1.4*pIC50 / atom count), 60' pre-incubation): 1.4
- Ligand Efficiency - 0' enzyme:inhibitor pre-incubation EZH2Y641N+Y661D [8]: 1.0
- Ligand Efficiency - 15' enzyme:inhibitor pre-incubation EZH2Y641N+Y661D [8]: 1.0
- Ligand Efficiency - 60' enzyme:inhibitor pre-incubation EZH2Y641N+Y661D [8]: 1.0
- IC50 ([8]; 0' enzyme:inhibitor pre-incubation, read-out: SPA Mean IC50 (M) - 0' enzyme:inhibitor pre-incubation EZH2Y641N+Y661D): 1.4e-06 M
- IC50 ([8]; 15' enzyme:inhibitor pre-incubation, read-out: SPA Mean IC50 (M) - 15' enzyme:inhibitor pre-incubation EZH2Y641N+Y661D): 1.1e-06 M
- IC50 ([8]; 60' enzyme:inhibitor pre-incubation, read-out: SPA Mean IC50 (M) - 60' enzyme:inhibitor pre-incubation EZH2Y641N+Y661D): 1.6e-06 M
- IC50 [9]: 6.4e-07 M
- Papp A→B at 2 h, 2 µM ([10]; 2 µM, 2 h, 37 °C, apical to basolateral, read-out: PK Caco-2 Flux Papp A-B (mean)): 15.4 ×10⁻⁶ cm/s
- Papp B→A at 2 h, 2 µM ([10]; 2 µM, 2 h, 37 °C, basolateral to apical, read-out: PK Caco-2 Flux Papp B-A (mean)): 17.4 ×10⁻⁶ cm/s
- efflux ratio at 2 h, 2 µM ([10]; Papp B-A divided by Papp A-B, read-out: PK Caco-2 Flux Efflux Ratio (mean)): 1.13
